Measured values from US4016159A, “Acylamino-cephem-carboxylic acids containing an amidino or guanidino group in the molecule” (Hoechst Aktiengesellschaft, priority 1973, dated 1977).
In brackets after ≈: the same amount, converted by molar mass. Where two headings read alike, the source gives them in different places.

How the values were obtained:
Assay type in all cases: cell-based
Proteus mirabilis = assay: Minimum inhibition concentration (MIC), Table 2; conditions: read-out: Minimum inhibition concentration (MIC)
Text: Minimum inhibition concentration (MIC) in /ml

Streptococcus D = assay: Minimum inhibition concentration (MIC), Table 4; conditions: Streptococcus, read-out: Minimum inhibition concentration (MIC)
Text: (§1) Minimum inhibition concentration (MIC) in γ/ml

[1] = tested on: Staphylococcus aureus SG 511; assay: Minimum inhibition concentration (MIC), Table 5; conditions: Staphylococcus aureus
Text: as §1
Germ: Staphylococcus aureus SG 511

[2] = tested on: Staphylococcus aureus 285; assay: Minimum inhibition concentration (MIC), Table 1; conditions: Staphylococcus aureus, 285, Germ: Staphylococcus aureus 285; read-out: Minimum inhibition concentration (MIC)
Text: as §1
Germ: Staphylococcus aureus 285

Streptococcus pyogenes A = assay: Minimum inhibition concentration (MIC), Table 3; conditions: read-out: Minimum inhibition concentration MIC
Text: Minimum inhibition concentration MIC in γ/ml
Germ: Streptococcus pyogenes A

[3] = SG511, Germ: Staphylococcus aureus SG 511, read-out: Minimum inhibition concentration (MIC)

SMILES | MIC (Proteus mirabilis; Germ: Proteus mirabilis) [µg/mL] | MIC (Streptococcus D; Germ: Streptococcus D) [µg/mL] | MIC [1, 3] [µg/mL] | MIC [2] [µg/mL] | MIC (Streptococcus pyogenes A; Germ: Streptococcus pyogenes A) [µg/mL] | MIC (Proteus mirabilis; Proteus mirabilis) [µg/mL] | MIC (Streptococcus D) [µg/mL] | MIC ([1]; SG511, read-out: Minimum inhibition concentration (MIC)) [µg/mL] | MIC (Streptococcus pyogenes A; Streptococcus pyogenes) [µg/mL]
CCCCc1nnc(SCC2=C(C(=O)O)N3C(=O)C(NC(=O)Cc4ccc(C(=N)N)cc4)C3SC2)s1 (stereo not drawn) [Example 55, 3-[(5-n-butyl-1,3,4-thiadiazole-2-yl)-thiomethyl]-7-(4-amidinophenylacetamido)-Δ 3-cephem-4-carboxylic acid] | 25 (≈ 45.7 µM) | 10 to 50 (≈ 18.3 to 91.5 µM) | 0.0625 to 0.078 (≈ 0.114 to 0.143 µM) | 0.156 to 0.391 (≈ 0.285 to 0.715 µM) | 0.000391 to 0.0078 (≈ 0.000715 to 0.0143 µM) |  |  |  | 
N=C(N)Nc1ccc(CC(=O)NC2C(=O)N3C(C(=O)O)=C(CSc4nncs4)CSC23)cc1 (stereo not drawn) [Example 9, 3-[(1,3,4-thiadiazole-2-yl)-thiomethyl]-7-(4-guanidino-phenylacetamido)-Δ3-cephem-4-carboxylic acid] | 25 (≈ 49.4 µM) | 10 to 50 (≈ 19.8 to 98.9 µM) | 0.0196 to 0.0391 (≈ 0.0388 to 0.0773 µM) | 0.5 to 1.25 (≈ 0.989 to 2.47 µM) | 0.000391 to 0.0078 (≈ 0.000773 to 0.0154 µM) |  |  |  | 
Cc1nnc(SCC2=C(C(=O)O)N3C(=O)C(NC(=O)Cc4ccc(C(=N)N)cc4)C3SC2)o1 (stereo not drawn) [Example 60, 3-[(5-methyl-1,3,4-oxadiazole-2-yl)-thiomethyl]-7-(4-amidinophenylacetamido)-Δ 3-cephem-4-carboxylic acid] | 3.1 to 12.5 (≈ 6.35 to 25.6 µM) | 10 to 50 (≈ 20.5 to 102 µM) | 0.0625 to 0.078 (≈ 0.128 to 0.16 µM) | 0.5 to 1.25 (≈ 1.02 to 2.56 µM) | 0.000391 to 0.0078 (≈ 0.0008 to 0.016 µM) |  |  |  | 
CCCc1nnc(SCC2=C(C(=O)O)N3C(=O)C(NC(=O)Cc4ccc(C(=N)N)cc4)C3SC2)s1 (stereo not drawn) [Example 58, 3-[(5-n-propyl-1,3,4-thiadiazole-2-yl)-thiomethyl]-7-(4-amidinophenylacetamido)-Δ 3-cephem-4-carboxylic acid] | 3.1 to 12.5 (≈ 5.82 to 23.5 µM) | 10 to 50 (≈ 18.8 to 93.9 µM) | 0.0196 to 0.0391 (≈ 0.0368 to 0.0734 µM) | 0.156 to 0.391 (≈ 0.293 to 0.734 µM) | 0.000391 to 0.0078 (≈ 0.000734 to 0.0146 µM) |  |  |  | 
CCc1nnc(SCC2=C(C(=O)O)N3C(=O)C(NC(=O)Cc4ccc(C5=NCCCN5)cc4)C3SC2)s1 (stereo not drawn) [Example 121, 3-[(5-ethyl-1,3,4-thiadiazole-2-yl)-thiomethyl]-7-[4-(1,4,5,6-tetrahydropyrimide-2-yl)-phenylacetamido]-Δ3-cephem-4-carboxylic acid] | 25 (≈ 44.7 µM) | 10 to 50 (≈ 17.9 to 89.5 µM) | 0.0196 to 0.0391 (≈ 0.0351 to 0.07 µM) | 0.156 to 0.391 (≈ 0.279 to 0.7 µM) | 0.000391 to 0.0078 (≈ 0.0007 to 0.014 µM) |  |  |  | 
CCc1nnc(SCC2=C(C(=O)O)N3C(=O)C(NC(=O)Cc4ccc(C5=NCCN5)cc4)C3SC2)s1 (stereo not drawn) [Example 120] | 3.1 to 12.5 (≈ 5.69 to 22.9 µM) | 10 to 50 (≈ 18.4 to 91.8 µM) | 0.0196 to 0.0391 (≈ 0.036 to 0.0718 µM) | 0.156 to 0.391 (≈ 0.286 to 0.718 µM) | 0.000391 to 0.0078 (≈ 0.000718 to 0.0143 µM) |  |  |  | 
CC(=O)OCC1=C(C(=O)O)N2C(=O)[C@@H](NC(=O)Cc3cccs3)[C@H]2SC1 [Cephalotin-Na, reference compound] |  |  |  |  |  | 12.5 (≈ 31.5 µM) | 78.5 (≈ 198 µM) | 0.13 (≈ 0.328 µM) | 0.05 (≈ 0.126 µM)
Cc1nnc(SCC2=C(C(=O)O)N3C(=O)C(NC(=O)Cc4ccc(C5=NCCN5)cc4)C3SC2)s1 (stereo not drawn) [Example 12, 3-[(5-methyl-1,3,4-thiadiazole-2-yl)-thiomethyl]-7-[4-(imidazoline-2-yl)-phenylacetamido]-Δ 3-cephem-4-carboxylic acid] | 3.1 to 12.5 (≈ 5.84 to 23.6 µM) | 0.196 to 6.25 (≈ 0.369 to 11.8 µM) |  | 0.156 to 0.391 (≈ 0.294 to 0.737 µM) | 0.008 to 0.0156 (≈ 0.0151 to 0.0294 µM) |  |  |  | 
O=C(Cc1ccc(C2=NCCN2)cc1)NC1C(=O)N2C(C(=O)O)=C(CSc3nnco3)CSC12 (stereo not drawn) [Example 124, 3-[(1,3,4-oxadiazole-2-yl)-thiomethyl]-7-[4-(imidazoline-2-yl)-phenylacetamido]-Δ 3-cephem-4-carboxylic acid] | 3.1 to 12.5 (≈ 6.19 to 25 µM) | 10 to 50 (≈ 20 to 99.9 µM) |  | 0.5 to 1.25 (≈ 0.999 to 2.5 µM) | 0.008 to 0.0156 (≈ 0.016 to 0.0312 µM) |  |  |  | 
O=C(Cc1ccc(C2=NCCN2)cc1)NC1C(=O)N2C(C(=O)O)=C(CSc3nc4ccccc4s3)CSC12 (stereo not drawn) [Example 118, 3-[(benzothiazole-2-yl)-thiomethyl]-7-[4-(imidazoline-2-yl)-phenylacetamido]-Δ3-cephem-4-carboxylic acid] | 25 (≈ 44.2 µM) | 0.196 to 6.25 (≈ 0.346 to 11 µM) | 0.0625 to 0.078 (≈ 0.11 to 0.138 µM) | 0.156 to 0.391 (≈ 0.276 to 0.691 µM) | 0.000391 to 0.0078 (≈ 0.000691 to 0.0138 µM) |  |  |  | 
N=C(N)c1ccc(CC(=O)NC2C(=O)N3C(C(=O)O)=C(CSc4nncs4)CSC23)cc1 (stereo not drawn) [Example 1, 3-[(1,3,4-thiadiazole-2-yl)-thiomethyl]-7-(4-amidino-phenylacetamido)-Δ3-cephem-4-carboxylic acid] | 3.1 to 12.5 (≈ 6.32 to 25.5 µM) | 10 to 50 (≈ 20.4 to 102 µM) | 0.0196 to 0.0391 (≈ 0.04 to 0.0797 µM) | 0.156 to 0.391 (≈ 0.318 to 0.797 µM) | 0.000391 to 0.0078 (≈ 0.000797 to 0.0159 µM) |  |  |  | 
Cc1nnc(SCC2=C(C(=O)O)N3C(=O)C(NC(=O)Cc4ccc(NC(=N)N)cc4)C3SC2)s1 (stereo not drawn) [Example 6, 3-[(5-methyl-1,3,4-thiadiazole-2-yl)-thiomethyl]-7-(4-guanidino-phenylacetamido)-Δ3-cephem-4-carboxylic acid] | 3.1 to 12.5 (≈ 5.97 to 24.1 µM) | 10 to 50 (≈ 19.2 to 96.2 µM) | 0.0196 to 0.0391 (≈ 0.0377 to 0.0752 µM) | 0.156 to 0.391 (≈ 0.3 to 0.752 µM) | 0.008 to 0.0156 (≈ 0.0154 to 0.03 µM) |  |  |  | 
